# According to patent US4321260A, “Method of using gonadorelin for the treatment of benign prostatic hyperplasia” (Ayerst, McKenna & Harrison Inc., priority 1980, dated 1982):
# “Also recorded” adds a separate entry of the source.
# Legend:
# ventral prostate = assay: 3-week daily s.c. treatment of male rats, weight of the ventral prostate; format: in vivo, Sprague-Dawley rats; details: for weight of the ventral prostate (wet weight): male rats
# Experimental: (§1) Adult male Sprague-Dawley rats weighing 275-325 g upon arrival were obtained from Canadian Breeding Laboratories, St. Constant, Quebec, Canada. All animals were housed 2 per cage in an air-conditioned (21±1° C.; 45-50% humidity) and light (12 hours light, 12 hours darkness)-controlled room and given food and water ad libitum. […] Rats were killed by decapitation 24 hours after the last injection. The testes, seminal vesicles and ventral prostate were removed, chilled, weighed and kept frozen at -20° C. until use.
# seminal vesicles = assay: 3-week daily s.c. treatment of male rats, weight of the seminal vesicles; format: in vivo, Sprague-Dawley rats; details: for weight of the seminal vesicles (wet weight): male rats
# Experimental: as §1
# testes = details: in vivo; cited from earlier work
# [1] = 25μg s.c. daily, 1 week of treatment
# [2] = 25μg s.c. daily, 2 weeks of treatment
# [3] = 25μg s.c. daily, 3 weeks of treatment
# [4] = 250μg s.c. daily, 1 week of treatment
# [5] = 250μg s.c. daily, 2 weeks of treatment
# [6] = 250μg s.c. daily, 3 weeks of treatment
# [7] = 2500μg s.c. daily, 1 week of treatment
# [8] = 2500μg s.c. daily, 2 weeks of treatment
# [9] = 2500μg s.c. daily, 3 weeks of treatment
# [10] = daily subcutaneous administration to male rats up to three weeks, listed as gonadorelin
molecule,measurement,setting,value
"CC(C)C[C@H](NC(=O)CNC(=O)[C@H](Cc1ccc(O)cc1)NC(=O)[C@H](CO)NC(=O)[C@H](Cc1c[nH]c2ccccc12)NC(=O)[C@H](Cc1cnc[nH]1)NC(=O)[C@@H]1CCC(=O)N1)C(=O)N[C@@H](CCCNC(=N)N)C(=O)N1CCC[C@H]1C(=O)NCC(N)=O [LH-RH, Pyr-His-Trp-Ser-Tyr-Gly-Leu-Arg-Pro-Gly-NH2]",weight of the ventral prostate (wet weight),ventral prostate; [1],359 ± 23 mg
same,weight of the ventral prostate (wet weight),ventral prostate; [2],415 ± 31 mg
same,weight of the ventral prostate (wet weight),ventral prostate; [3],378 ± 13 mg
same,weight of the ventral prostate (wet weight),ventral prostate; [4],360 ± 26 mg
same,weight of the ventral prostate (wet weight),ventral prostate; [5],380 ± 38 mg
same,weight of the ventral prostate (wet weight),ventral prostate; [6],370 ± 25 mg
same,weight of the ventral prostate (wet weight),ventral prostate; [7],325 ± 12 mg
same,weight of the ventral prostate (wet weight),ventral prostate; [8],355 ± 31 mg
same,weight of the ventral prostate (wet weight),ventral prostate; [9],373 ± 18 mg
same,effect on ventral prostate weight (in words),ventral prostate; [10],significant decrease; also recorded: significantly decreases
same,weight of the seminal vesicles (wet weight),seminal vesicles; [1],281 ± 14 mg
same,weight of the seminal vesicles (wet weight),seminal vesicles; [2],247 ± 9 mg
same,weight of the seminal vesicles (wet weight),seminal vesicles; [3],260 ± 13 mg
same,weight of the seminal vesicles (wet weight),seminal vesicles; [4],298 ± 10 mg
same,weight of the seminal vesicles (wet weight),seminal vesicles; [5],249 ± 18 mg
same,weight of the seminal vesicles (wet weight),seminal vesicles; [6],210 ± 8 mg
same,weight of the seminal vesicles (wet weight),seminal vesicles; [7],265 ± 10 mg
same,weight of the seminal vesicles (wet weight),seminal vesicles; [8],236 ± 13 mg
same,weight of the seminal vesicles (wet weight),seminal vesicles; [9],225 ± 9 mg
same,effect on the weight of seminal vesicles (in words),seminal vesicles; [10],significant decrease; also recorded: significantly decreases
"[D-Ala^6, des-Gly-NH2^10 ]-LH-RH ethylamide",selective effect (decrease of seminal vesicle and ventral prostate weight while not affecting testicular weight),testes,do not show such a selectivity
"[D-Leu^6,des-Gly-NH2^10 ]-LH-RH ethylamide",selective effect (decrease of seminal vesicle and ventral prostate weight while not affecting testicular weight),testes,do not show such a selectivity
